Measurements published in the supplement of paper PMC6045584.
± gives the standard deviation of the averaged measurements.

Tests used:
[1] = compound: CC[C@@H](C(=O)[C@@H](C)[C@@H](O)[C@H](C)[C@@H]1O[C@@H]([C@@H](CC)C(=O)O)CC[C@@H]1C)[C@H]1O[C@]2(C=C[C@@H](O)[C@]3(CC[C@@](C)([C@H]4CC[C@](O)(CC)[C@H](C)O4)O3)O2)[C@H](C)C[C@@H]1C [SALINOMYCIN]; assay: surviving fraction relative to DMSO-only wells; higher = less growth inhibition; conditions: exposure time: 5 days
Outline: (§1)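 Tumour cell lines in log phase were plated in 384-well plates at 250–500 cells per well, then, after 24 hours, exposed continuously for five days to inhibitors at 0.5, 1, 5, 10, 50, 100, 500 and 1000 nM. Viability came from CellTiter-Glo luminescence, and surviving fraction is that signal normalised to the median of DMSO-only wells. Plates were read after 10 minutes at room temperature, and each line, screened three times, was kept only when replicate Pearson r was >0.7 and median Z' was >0.3.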

[2] = compound: Oc1ccc(/C=C/c2cc(O)cc(O)c2)cc1 [RESVERATROL]; assay: as above; conditions: exposure time: 5 days
Outline: as §1

Test System	surviving fraction ([1]; 0.5 nM)	surviving fraction ([1]; 1 nM)	surviving fraction ([1]; 5 nM)	surviving fraction ([1]; 10 nM)	surviving fraction ([1]; 50 nM)	surviving fraction ([1]; 100 nM)	surviving fraction ([1]; 500 nM)	surviving fraction ([1]; 1000 nM)	surviving fraction ([2]; 0.5 nM)	surviving fraction ([2]; 1 nM)	surviving fraction ([2]; 5 nM)	surviving fraction ([2]; 10 nM)	surviving fraction ([2]; 50 nM)	surviving fraction ([2]; 100 nM)	surviving fraction ([2]; 500 nM)	surviving fraction ([2]; 1000 nM)
HCC1395 BREAST	1.06 ± 0.1	1.26 ± 0.26	1.17 ± 0.11	1.05 ± 0.15	1.16 ± 0.13	1.11 ± 0.041	0.843 ± 0.13	0.751 ± 0.16	0.968 ± 0.099	1.07 ± 0.075	1.1 ± 0.069	1.28 ± 0.16	1.02 ± 0.094	1.21 ± 0.1	1.05 ± 0.09	0.985 ± 0.15
MDAMB361 BREAST	0.826 ± 0.086	0.866 ± 0.041	0.877 ± 0.0093	0.845 ± 0.058	0.909 ± 0.047	0.845 ± 0.035	0.753 ± 0.014	0.638 ± 0.0085	0.839 ± 0.071	0.871 ± 0.11	0.894 ± 0.089	0.898 ± 0.079	0.948 ± 0.012	0.884 ± 0.021	0.949 ± 0.082	0.952 ± 0.17
SG32 HEADNECK	0.944 ± 0.068	1.13 ± 0.41	0.951 ± 0.13	0.729 ± 0.054	0.921 ± 0.13	0.636 ± 0.016	0.133 ± 0.01	0.054 ± 0.0044	1.02 ± 0.14	0.975 ± 0.06	1.16 ± 0.25	0.989 ± 0.051	0.999 ± 0.018	1.05 ± 0.092	0.989 ± 0.2	1.01 ± 0.11
CAL120 BREAST	0.8885 ± 0.0083	0.893 ± 0.0056	0.877 ± 0.021	0.8868 ± 0.0073	0.661 ± 0.01	0.334 ± 0.015	0.088 ± 0.0061	0.0535 ± 0.0022	0.966 ± 0.049	1.01 ± 0.059	0.975 ± 0.058	0.983 ± 0.069	1.02 ± 0.07	0.998 ± 0.043	1.04 ± 0.017	1.04 ± 0.056
MDAMB453 BREAST	0.969 ± 0.025	0.9587 ± 0.0015	0.978 ± 0.027	0.9897 ± 0.009	1.02 ± 0.058	0.993 ± 0.045	0.56 ± 0.032	0.426 ± 0.06	1.07 ± 0.059	1.06 ± 0.06	1.16 ± 0.022	1.11 ± 0.039	1.16 ± 0.05	1.12 ± 0.069	1.04 ± 0.058	1.09 ± 0.019
DU4475 BREAST	0.949 ± 0.23	0.893 ± 0.28	0.857 ± 0.28	0.9 ± 0.33	0.793 ± 0.27	0.665 ± 0.32	0.293 ± 0.18	0.17 ± 0.078	1 ± 0.13	0.973 ± 0.051	0.967 ± 0.13	0.964 ± 0.074	0.985 ± 0.1	1.05 ± 0.17	1.02 ± 0.047	1.1 ± 0.22
NCIH441 LUNG	1.01 ± 0.034	1.01 ± 0.038	1.06 ± 0.054	0.904 ± 0.06	1.12 ± 0.023	1.05 ± 0.049	0.715 ± 0.049	0.504 ± 0.061	1.14 ± 0.074	1.08 ± 0.12	1.1 ± 0.099	1.18 ± 0.09	1.09 ± 0.029	1.15 ± 0.087	1.1 ± 0.025	1.17 ± 0.026
CASKI CERVIX	0.93 ± 0.055	0.921 ± 0.039	0.868 ± 0.037	0.911 ± 0.038	0.703 ± 0.0027	0.583 ± 0.028	0.3273 ± 0.0031	0.289 ± 0.024	0.938 ± 0.09	0.926 ± 0.033	0.959 ± 0.045	0.963 ± 0.049	1.03 ± 0.036	1.05 ± 0.099	0.993 ± 0.023	1.06 ± 0.041
SJSA1 BONE	1 ± 0.033	0.992 ± 0.011	1.02 ± 0.041	1 ± 0.033	1.02 ± 0.023	0.966 ± 0.023	0.404 ± 0.041	0.27 ± 0.043	1.62 ± 0.083	1.74 ± 0.059	1.65 ± 0.053	1.79 ± 0.04	1.67 ± 0.13	1.74 ± 0.092	1.61 ± 0.13	1.78 ± 0.078
BT549 BREAST	0.999 ± 0.033	1.18 ± 0.079	1.02 ± 0.056	0.93 ± 0.031	0.891 ± 0.35	0.73 ± 0.39	0.523 ± 0.2	0.341 ± 0.079	0.97 ± 0.081	1.1 ± 0.17	0.942 ± 0.14	1.09 ± 0.06	1.16 ± 0.038	1.01 ± 0.14	1.15 ± 0.047	1.12 ± 0.028
SCC36 HEADNECK	0.984 ± 0.07	0.972 ± 0.12	1.094 ± 0.0015	0.973 ± 0.039	1.11 ± 0.02	0.925 ± 0.051	0.149 ± 0.011	0.08 ± 0.0078	1.13 ± 0.082	1.14 ± 0.11	1.22 ± 0.044	1.19 ± 0.045	1.25 ± 0.07	1.25 ± 0.03	1.05 ± 0.099	1.16 ± 0.16
HCC1806 BREAST	0.957 ± 0.25	0.695 ± 0.59	0.819 ± 0.58	0.709 ± 0.61	0.965 ± 0.17	0.873 ± 0.04	0.33 ± 0.056	0.223 ± 0.0067	1.04 ± 0.073	1.04 ± 0.072	1.18 ± 0.14	1.18 ± 0.051	1.24 ± 0.049	1.23 ± 0.044	0.963 ± 0.029	0.963 ± 0.19
SG43 HEADNECK	0.921 ± 0.12	1.2 ± 0.14	0.776 ± 0.14	1.05 ± 0.13	0.954 ± 0.14	1.16 ± 0.13	0.459 ± 0.023	0.285 ± 0.11	0.856 ± 0.14	1.06 ± 0.048	0.867 ± 0.23	0.914 ± 0.025	0.822 ± 0.13	0.794 ± 0.19	0.848 ± 0.14	0.898 ± 0.22
MG63 BONE	0.963 ± 0.02	0.941 ± 0.032	0.98 ± 0.021	0.946 ± 0.045	1.006 ± 0.003	0.871 ± 0.0095	0.167 ± 0.0053	0.081 ± 0.0044	1.01 ± 0.038	1.06 ± 0.048	1.07 ± 0.035	1.15 ± 0.021	1.04 ± 0.024	1.11 ± 0.029	1.03 ± 0.023	1.05 ± 0.031
ZR751 BREAST	1.05 ± 0.086	1.01 ± 0.11	0.992 ± 0.14	1.03 ± 0.092	1.17 ± 0.15	0.787 ± 0.089	0.408 ± 0.055	0.289 ± 0.024	0.956 ± 0.028	1.08 ± 0.069	0.95 ± 0.07	1.01 ± 0.037	1.01 ± 0.1	1.03 ± 0.1	0.957 ± 0.045	1.12 ± 0.088
CAL51 BREAST	0.937 ± 0.041	0.86 ± 0.12	0.984 ± 0.018	0.969 ± 0.021	1 ± 0.017	0.972 ± 0.034	0.615 ± 0.022	0.359 ± 0.018	0.901 ± 0.03	1.04 ± 0.033	1.07 ± 0.034	1.03 ± 0.038	1.04 ± 0.056	1.03 ± 0.028	1.02 ± 0.047	1.1 ± 0.043
MDAMB468 BREAST	1 ± 0.02	1 ± 0.087	1.04 ± 0.026	1.01 ± 0.052	1.12 ± 0.022	1.09 ± 0.04	0.648 ± 0.054	0.329 ± 0.018	1.05 ± 0.11	1.13 ± 0.08	1.06 ± 0.059	1.07 ± 0.05	1.02 ± 0.047	1.14 ± 0.037	1.07 ± 0.053	1.09 ± 0.06
MCF7 BREAST	0.853 ± 0.048	0.8602 ± 0.005	0.821 ± 0.025	0.815 ± 0.034	0.941 ± 0.02	0.908 ± 0.055	0.677 ± 0.014	0.348 ± 0.028	0.91 ± 0.027	1.01 ± 0.074	0.927 ± 0.068	0.947 ± 0.03	0.951 ± 0.063	0.99 ± 0.016	1 ± 0.077	1.04 ± 0.031
HU09 BONE	1.06 ± 0.035	1.01 ± 0.019	1.12 ± 0.14	1.03 ± 0.091	1.04 ± 0.12	0.897 ± 0.077	0.476 ± 0.036	0.271 ± 0.0068	0.972 ± 0.079	1.08 ± 0.1	1.13 ± 0.1	1.07 ± 0.077	1.11 ± 0.15	1.1 ± 0.079	1.05 ± 0.12	1.06 ± 0.038
SYO1 SYNOVIAL	0.905 ± 0.038	0.832 ± 0.089	0.876 ± 0.056	0.475 ± 0.14	0.949 ± 0.04	0.804 ± 0.1	0.293 ± 0.02	0.117 ± 0.028	0.975 ± 0.062	0.996 ± 0.027	0.996 ± 0.04	0.991 ± 0.044	0.974 ± 0.045	1.01 ± 0.038	0.987 ± 0.039	1.01 ± 0.051
